The text below walks through data of patent publication US8158589B2, “Peptides with the capacity to bind to transforming growth factor β1 (TGF-β1)” (Proyecto Biomedicine Cima, S.L., priority 2003, dated 2012).

The target in assay [1] is T1, TGF-β1 (Homo sapiens, UniProt P01137). The assay is classed as cell-based. Set-up: purchased Roche; host or cells: added to Mv-1-Lu (CCL-64) mink lung epithelial cells. An excerpt:
The cell line Mv-1-Lu (CCL-64, […], Virginia, USA) derives from mink pulmonary epithelium, grows as a monolayer, and responds to the presence of TGF-β1 by decreasing its proliferation (FIG. 5). Thus, the peptide-mediated inhibition of this cytokine is able to restore cell growth and reflects the capacity of the different peptides to inhibit the biological activity of TGF-β1 in vitro. The peptides tested were obtained by peptide synthesis, in accordance to conventional procedures (Merrifield R B. J Am Chem Soc 1963; 85:2149-2154; Atherton E et al. J Chem Soc Perkin Trans 1981; 1:538-546).
The Mv-1-Lu cells are cultured to confluence in complete medium [RPMI-1640 supplemented with L-glutamine, sodium pyruvate, antibiotics and 10% fetal bovine serum (FBS)] at 37° C. and in 5% CO2 in 162 cm^2 bottles (Costar Corporation, CA, USA). Following trypsinization, the cells are cultured in 200 μl of complete medium in 96-well plates at an initial density of 5,000 cells/well at 37° C. and in 5% CO2 during 6 hours to ensure adhesion. Then, different concentrations of the peptides to be tested are added, starting from 200 μg/ml, and following 200 pg/ml of TGF-β1 (Roche) are added. After 12 hours of incubation 1 μCi of methyl-3H-thymidine (Amersham Life Science, Buckinghamshire, United Kingdom) is added per well in 25 μl of clean medium (RPMI-1640). The plate is incubated for 12 more hours under the same conditions. Finally, the cells are harvested (Filtermate 196 Harvester, Packard), transferring the tritiated thymidine, incorporated in the course of DNA synthesis, to plates (UniFilter-96 GF/C®, Perkin Elmer). Following the addition of scintillation fluid, the radioactivity was quantified using a scintillation counter (Top Count, Microplate Scintillation Counter, Packard). As positive and negative control, use was made of the incorporation of tritiated thymidine in the absence and presence of TGF-β1, respectively. The inhibition of TGF-β1 activity in this test was calculated based on the following formula: […]
The negative control represents the incorporation of tritiated thymidine in the presence of TGF-β1 but in the absence of peptide, whereas the positive control refers to the incorporation of tritiated thymidine in the absence of TGF-β1 and peptide. Thus, according to the capacity of the peptides to revert the cytokine repressor effect on Mv-1-Lu cell line proliferation, percentage of TGF-β1 biological activity inhibition by the peptides can be measured (Table 2).
Comparisons have been made of the activity of truncated peptides (derived from peptide sequence SEQ ID NO: 17) versus the complete sequence, in terms of the capacity to revert the suppressor effect of TGF-β1 upon proliferation of the Mv-1-Lu cell line. To this effect, and to determine the minimum sequence of peptide SEQ ID NO: 17 capable of inhibiting the biological activity of TGF-β1 in vitro, truncated versions of this peptide were synthesized, with truncation at the N-terminal end, C-terminal end or in both ends of the molecule. The peptides tested were obtained by peptide synthesis following conventional procedures (Merrifield R B. J Am Chem Soc 1963; 85:2149-2154; Atherton E et al. J Chem Soc Perkin Trans 1981; 1:538-546). Following the same methodology described in Example 2, the activity of truncated peptides versus the complete sequence of the peptide SEQ ID NO: 17 was quantified, in terms of a proliferation assay of the Mv-1-Lu cell line.
Target sequence in this assay (P01137 279-390 limits assumed, species assumed): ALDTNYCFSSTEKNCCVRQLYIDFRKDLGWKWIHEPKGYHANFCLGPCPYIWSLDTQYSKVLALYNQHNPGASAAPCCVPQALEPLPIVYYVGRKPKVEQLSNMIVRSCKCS

Assay [2] has as its target T1, TGF-β1. In words: CTGF mRNA expression induced by TGF-β1 in IMR-90 lung fibroblasts, real time RT-PCR. The assay is classed as cell-based. Details: purchased R&D Systems; host or cells: added to IMR-90 human lung fibroblasts. The note with it: IMR-90 cells, 5 ng/ml TGF-β1, peptide 100 μg/ml, 6 hours. The protocol: IMR-90 human lung fibroblasts (ATCC, Manassas, Va.) were cultured in EMEM medium (Cambrex, Belgium) supplemented with 10% fetal bovine serum (FBS), 1 mM sodium pyruvate, 0.1 mM nonessential amino acids, 100 U/ml penicillin and 100 μg/ml streptomycin (Gibco BRL, UK). For experiments, 6×10^4 cells/well were cultured in 6-well plates in 2 ml of medium and when they were 80% confluent, medium was replaced with serum-free EMEM for 48 h to induce quiescence. TGF-β1 (5 ng/ml) and P17 (100 μg/ml) were co-incubated for 90 min at 37° C. to allow binding of both molecules before addition to cell cultures. Quiescent cells were then stimulated with TGF-β1 and/or P17 for up to 6 or 24 h. After these incubation periods, fibroblasts were harvested for gene and protein analysis, respectively.
Total RNA was purified from IMR-90 fibroblasts and whole lung samples using Ultraspec RNA (Biotecx; Houston, Tex.) according to the manufacturer's instructions. […] Expression of human Connective Tissue Growth Factor (CTGF) mRNA induced by TGF-β1 in IMR-90 fibroblasts was measured by real time RT-PCR using an ICycler and IQ SYBR Supermix (Bio-Rad, Italy). […] For in vivo analysis, expression of murine Fibronectin (FN), extra domain A of Fibronectin (EDA-FN), Collagen type I and Interferon gamma (IFN-γ) was measured in lungs, using Histone 3 as internal control. […]
Target sequence in this assay (P01137 279-390 limits assumed): as the sequence (P01137 279-390 limits assumed, species assumed) above

Ends that are not written are not given here.

Take “KRIWFIPRSSWYERA [SEQ ID NO: 17, KRIWFIPRSSWYERA]”: the “% Inhibition of in vitro TGF-β1 biological activity” value at TGF-β1 [1] is 28.5%. Besides, the “CTGF mRNA expression induced by TGF-β1” value on TGF-β1 [2] is “significantly decreased”.
